Measurements reported in patent US20020193379A1, “Compositions and methods for decreasing the risk of or preventing neural tube disorders in mammals” (Insmed Incorporated, priority 2001, published 2002).
Where two headings read alike, the source gives them in different places.

Assays:
curly-tail mouse embryos = assay: In vitro culture of curly-tail mouse embryos with inositols at 20 μg/ml for 24 hours; assay type: cell-based
Method: In in vitro studies, curly-tail mouse embryos were explanted into culture at 9.5 days after conception, corresponding to the onset of low spinal cord neural tube closure. Inositol additions were made at the start of culture and were maintained throughout the 24 hour culture period. Inositols were maintained at 20 μg/ml. At the end of culture, the embryos were dissected from their extraembryonic membranes, and crown-rump and posterior neuropore lengths were measured as indices of developmental growth, progression and low spinal neural tube closure.

[1] = test system: curly tail mouse fetuses (NTDs characterized by spina bifida); assay: In vivo treatment of pregnant curly-tail mice by subcutaneous minipump, fetuses scored for NTDs; conditions: subcutaneous 90 mg/kg/day, four to ten days
Method: (§1) In in vivo studies, pregnant curly-tail female mice were treated with inositols or PBS (control) by either subcutaneous injection or oral gavage. Using inositols at 75 mg/ml injected by subcutaneous minipump at […], a total daily dosage of 90 mg/kg/day was administered. Inositols were administered from gestational day 8.5 through day 18.5, and fetuses were scored for NTDs on days 12.5 and 18.5. For oral dosing, mice were administered via gavage with 400 mg/kg of inositol twice daily on gestational days 8.5 through 10.5, with fetuses scored for NTDs on day 12.5.

[2] = test system: curly tail mouse fetuses (NTDs characterized by spina bifida); assay: In vivo treatment of pregnant curly-tail mice by oral gavage, fetuses scored for NTDs; conditions: three days
Method: as §1

[3] = test system: curly tail embryos (posterior neuropore closure); assay type: cell-based, mouse; conditions: for Effect on posterior neuropore length: vs PBS-treated controls
Method: (§2) Mice—Curly tail mice are maintained as a homozygous, random-bred stock (Van Straaten, H. W. M. & Copp, A. J., Anat. Embryol. 203, 225-237 (2001)) Experimental litters were generated by timed matings, and the day of finding a copulation plug was designated embryonic day (E) 0.5.
In vitro inositol treatment—E9.5 embryos (17-19 somite stage) were cultured for 24 hours at 38° C. in whole rat serum. Thirty minutes after the start of culture, myo-inositol (Sigma, UK) or D-chiro-inositol (Insmed, Va., USA) was added to the medium (62.5 μl of inositol stock per ml rat serum) to a final concentration of 5, 10, 20 or 50 μg/ml inositol. Control cultures received an equal volume of phosphate buffered saline (PBS). Following culture, embryos were scored for: (i) posterior neuropore length (the distance from the rostral end of the posterior neuropore to the tip of the tail bud), (ii) crown-rump length and (iii) somite number.

[4] = test system: curly tail fetuses (spina bifida and tail flexion defects); assay type: in vivo, mouse
Method: as §2
In utero inositol treatment (subcutaneous administration)—For sub-cutaneous administration, osmotic mini-pumps (capacity 100 μl, delivery rate 1 μl/hour; Model 1003D, Alzet) were filled with solutions of 30, 75 or 150 mg/ml inositol (delivering 29, 72 and 144 μg inositol/g body weight/day respectively for a 25 g mouse), or PBS as a control. Mini-pumps were incubated in sterile PBS at 37° C. for 4 hours and then implanted subcutaneously on the back of pregnant mice at E8.5. General anesthesia was induced by an intra-peritoneal injection of 0.01 ml/g body weight of a solution comprising 10% Hypnovel® (midazolam 5 mg/ml) and 25% Hypnorm® (fentanyl citrate 0.315 mg/ml, fluanisone 10 mg/ml) in sterile distilled water.
(§3) Pregnant females were killed at E18.5, and the total number of implantations, classified as viable fetuses or resorptions, was recorded. Fetuses were dissected from the uterus and inspected immediately for the presence of open lumbo-sacral spina bifida and tail flexion defects: the primary manifestations of the curly tail genetic defect.

[5] = test system: curly tail fetuses (spina bifida and tail flexion defects); assay: In utero inositol treatment, oral dosing by gavage, fetuses inspected at E18.5; assay type: in vivo, mouse
Method: as §2
In utero inositol treatment (oral dosing)—For oral administration, pregnant mice were gavaged with 0.5 ml inositol solution in PBS at 12 hourly intervals from E8.5 to E10.5 (six doses in total; 800 μg/g body weight/day).
as §3

[6] = test system: rat fibroblasts expressing the human insulin receptor; conditions: cited from earlier work
[7] = test system: rats rendered diabetic by streptozotocin; conditions: cited from earlier work
[8] = test system: patients with polycystic ovary syndrome; conditions: cited from earlier work
[9] = oral gavage 400 mg/kg twice daily
[10] = subcutaneous 29 μg inositol/g body weight/day
[11] = subcutaneous 72 μg inositol/g body weight/day
[12] = subcutaneous 144 μg inositol/g body weight/day
[13] = oral 800 μg inositol/g body weight/day

Crown-rump length compared with PBS-treated controls [3]: no significant difference
No. uterine resorptions [5, 13]: 3
Resorptions as % of total number of implantations [5, 13]: 7.1%
SMILES: OC1C(O)C(O)C(O)C(O)C1O [D-chiro-inositol]
Mean posterior neuropore length (curly-tail mouse embryos; 20 μg/ml, 24 hours, in vitro): 0.095±0.055
Mean posterior neuropore to crown-rump length ratio (curly-tail mouse embryos; 20 μg/ml, 24 hours, in vitro): .029±.018
Fold decrease in mean posterior neuropore to crown-rump length ratio (curly-tail mouse embryos; 20 μg/ml, 24 hours, compared to control or myo-inositol treated): 5.6 fold
Fold decrease in mean posterior neuropore length (curly-tail mouse embryos; 24 hours of treatment in vitro): 6 fold
Fold decrease in number of fetuses with spina bifida compared to control [1]: 9 fold
Fold decrease in number of fetuses with spina bifida compared to myo-inositol [1]: 4 fold
Number of fetuses showing NTDs characterized by spina bifida [1]: 1
Percent of treated fetuses showing spina bifida [1]: 1.7%
Number of fetuses showing NTDs characterized by spina bifida [2, 9]: 1
Percent of treated fetuses showing spina bifida [2, 9]: 2.3%
Fold decrease in number of fetuses with spina bifida compared to control ([2]; oral): 8 fold
Fold decrease in number of fetuses with spina bifida compared to myo-inositol ([2]; oral): 3 fold
Effect on posterior neuropore length ([3]; 20 μg/ml): reduced neuropore length
Effect on posterior neuropore length ([3]; 50 μg/ml): reduced neuropore length
Effect on posterior neuropore length ([3]; 5-10 μg/ml): not different from PBS-treated controls
Likelihood of fetuses being normal vs PBS (ordinal multilevel regression) ([4]; subcutaneous): significantly more likely to be normal
Curly tail, % of total for treatment group [4, 10]: 65.4%
Curly tail, number of fetuses [4, 10]: 17
Normal, % of total for treatment group [4, 10]: 23.1%
Normal, number of fetuses [4, 10]: 6
Spina bifida ± curly tail, % of total for treatment group [4, 10]: 11.5%
Spina bifida ± curly tail, number of fetuses [4, 10]: 3
Curly tail, % of total for treatment group [4, 11]: 45.4%
Curly tail, number of fetuses [4, 11]: 39
Normal, % of total for treatment group [4, 11]: 52.3%
Normal, number of fetuses [4, 11]: 45
Spina bifida ± curly tail, % of total for treatment group [4, 11]: 2.3%
Spina bifida ± curly tail, number of fetuses [4, 11]: 2
Curly tail, % of total for treatment group [4, 12]: 46.5%
Curly tail, number of fetuses [4, 12]: 46
Normal, % of total for treatment group [4, 12]: 48.5%
Normal, number of fetuses [4, 12]: 48
Spina bifida ± curly tail, % of total for treatment group [4, 12]: 5.0%
Spina bifida ± curly tail, number of fetuses [4, 12]: 5
Decrease in spina bifida frequency relative to PBS controls ([4]; subcutaneous 72 and 144 μg/g body weight/day): 73-83%
Curly tail, % of total for treatment group [5, 13]: 30.8%
Curly tail, number of fetuses [5, 13]: 12
No. viable fetuses [5, 13]: 39
Normal, % of total for treatment group [5, 13]: 66.7%
Normal, number of fetuses [5, 13]: 26
Spina bifida ± curly tail, % of total for treatment group [5, 13]: 2.6%
Spina bifida ± curly tail, number of fetuses [5, 13]: 1
Mean litter size ± SEM ([5]; oral 800 μg inositol/g body weight/day, viable fetuses per litter): 6.50 ± 1.09
Reduction in the frequency of spina bifida ([5]; oral 800 μg/g body weight/day): 86%
Effect on frequency of spina bifida among offspring ([5]; oral 800 μg/g body weight/day, E8.5 to E10.5): marked reduction in the frequency of spina bifida
Likelihood of fetuses being normal vs PBS (ordinal multilevel regression) ([5]; oral dosing study): more likely to be normal
Effect of insulin stimulation on incorporation into phospholipids [6]: significant increase
Reduction in plasma glucose level compared with exogenous myo-inositol [7]: much larger reduction in plasma glucose level
Effect on the action of insulin [8]: increase the action of insulin
